Measured values as given in patent US20240075093A1, “COMPOSITIONS AND METHODS OF TREATING A PI3K MEDIATED DISEASE” (VIRGINIA TECH INTELLECTUAL PROPERTIES, INC., priority 2020, published 2024).

Tests used:
[1] = system: SF295 cells; experiment: MTS cell viability assay; type: cell-based; conditions: 20 uM TGX-221 and 50 uM TMZ, 4 days
Experimental: (FIG. 12A) p110βC2in. CPP: cell-penetrating peptide. Simulated p110βC2in (rainbow as represented in greyscale) is shown. (FIG. 12B) FITC-p110βC2in in LN229/GSCs was imaged using a fluorescence microscope. Upper: FITC; lower: bright view. (FIG. 12C) PI3K/AKT activity affected by 100 μM p110βC2in (+) or C2Scramble-1 (−). (FIG. 12D) MTS Cell viability assay. Cells were treated with 50 μM peptides for 4 days. Student t test was used to determine P values.
(§1) Cell viability was measured by the MTS assay. P values were determined using the student t test or one-way ANOVA. Error bars represent three independent experiments.
This scheme has been repeated in experiments presented hereafter. Cell viability was determined using the MTS viability assay. Percentages of cell viability were obtained by normalizing the MTS readings of treatment groups to that of DMSO group. (FIG. 34B) Scores of Excess Over Bliss (EOB) calculated using the Bliss Independence model. The drug combination is synergistic if EOB is more than 0%, additive if EOB equals to 0%, or antagonistic if EOB is less than 0%. […] (FIG. 34D) EOB scores of drug combinations in LN229 and VTC-001 cells. (FIG. 34E) Caspase 3/7 activity in VTC-103 and VTC-001 cells. The activity of cleaved caspase 3/7 (active) was determined using a luminescence assay. Shown are luminescence readings. (FIG. 34F) EOB scores of drug combinations in VTC-103 and VTC-001 cells. […] SF295 cells were subcutaneously injected into immuno-deficient mice. […] Tumor volumes are shown. […] Cell viability was determined using the MTS viability assay. Percentages of cell viability were obtained by normalizing the MTS readings of treatment groups to that of shNS group. […]
(§2) Cell viability was determined by the MTS cell viability assay (Promega) as described previously 21,24-27. […] At each hour time point, the absorbance at 490 nm was measured using a FilterMax F3 microplate reader (Molecular Devices, LLC) according to the manufacturer's instructions. Percent cell viability was obtained by dividing the absorbance of treatment groups to those of untreated and respective vehicle control groups.

[2] = system: astrocytes; experiment: MTS cell viability assay; type: cell-based, human; conditions: 20 uM TGX-221 and 50 uM TMZ, 4 days
Experimental: as §1
(FIG. 46A) The effect of the αCT1/GSK/TMZ combo in VTC-103 cells. […] (FIG. 46B) The effect of the αCT1/GSK/TMZ combo in LN229 cells. (FIG. 46C) EOB scores of drug combinations in VTC-103 and LN229 cells. […] (FIG. 46E) EOB scores of drug combinations in astrocytes. One-way ANOVA with Dunnett test for correction of multiple comparisons or Student's t test was used to determine statistical significance. *: P<0.05; ns: not significant. Drug combinations with strong synergistic effect were marked in red.
as §2, with “21,24-27. In brief, 250 to 1,000 cells were plated in the wells of a 96-well plate-based upon the cell growth rate. Because the drug treatment usually takes 6-7 days, fast-growing cells could be over-grown if plated at a high cell density.” for “21,24-27.”

`Cc1cc(C(C)Nc2ccccc2)c2nc(N3CCOCC3)cc(=O)n2c1` (centres unmarked) [TGX-221] was tested, and the TMZ sensitivity [1] was “increased TMZ sensitivity” and the “effect of TGX-221 plus TMZ combination on astrocytes” value [2] was “did not harm astrocytes”.
